Experimental data published in US20120271010A1, “HYDROPHILIC POLYMER COMPOUND HAVING ANTICOAGULATION EFFECT” (TORAY INDUSTRIES, INC., priority 2009, published 2012).

System: blood collected from a volunteer
Test: Measurement of whole blood clotting time (Sonoclot, ACT ONSET)
Design: species or system human
Procedure: The blood collected from a volunteer and citric acid were mixed at a volume ratio of 9/1 to prepare blood supplemented with citric acid.
In a cuvette (NON-ACTIVATED CLOTTING TEST KIT), 18 μL of physiological saline solution was placed, and 14.8 μL of calcicol was added thereto, followed by further adding 342 μL of blood supplemented with citric acid. Thereafter, the measurement using Sonoclot Blood Coagulation/Platelet Function Analyzer (IMI) was carried out to define the obtained ACT ONSET value as whole blood clotting time. The whole blood clotting time of the blood collected by volunteer was 545 seconds.

CC1CNc2c(cccc2S(=O)(=O)N[C@@H](CCCNC(=N)N)C(=O)N2CC[C@@H](C)C[C@@H]2C(=O)O)C1 (mixture of isomers) [argatroban, (2R,4R)-4-methyl-1-((2S)-2-{[(3RS)-3-methyl-1,2,3,4-tetrahydroquinolin-8-yl]sulfonyl}amino-5-guanidinopentanoyl)piperidin-2-carboxylic acid]
Whole blood clotting time (2 μM argatroban solution in place of physiological saline solution): 531 s
Whole blood clotting time (10 μM argatroban solution in place of physiological saline solution): 746 s
Whole blood clotting time (20 μM argatroban solution in place of physiological saline solution): 849 s
